Assay results taken from patent publication US20030129205A1, “Composition and method for the prevention and/or the treatment of allergy” (priority 2000, published 2003).

Experiments:
mouse T cells = experiment: T cell proliferation assay in mice of additional H-2 haplotypes; type: cell-based; conditions: H-2b (C57BL/6), H-2k (C3H), H-2d (SJL) as printed; significant proliferative response for the three haplotypes
[1] = tested on: T cells from peripheral blood; experiment: proliferation assay with T cells from peripheral blood of atopic individuals; type: cell-based
Description: (§1) Functional cross-reactivity between Der p II, FIS and myoglobin was checked by in vitro proliferation assays. Thus, the T cell suspension was adjusted to 5×10^6 cells per ml in RPMI 1640 buffer supplemented with 2 mM glutamine, 100 U penicillin/ml, 100 jug streptomycin/ml, 5% heat-inactivated fetal calf serum and 5×10^−5 M 2-mercaptoethanol. One hundred μl of the T-cell-enriched fraction ([…]) was cultured in 100 μl of the above-described medium containing different concentrations of test peptide or myoglobin, and mitomycin-C treated syngeneic naive spleen cells as a source of APC (4×10^5 per well). Incubation was carried out into a humidified atmosphere of 5% CO2 in air for 4 days, and cells were pulsed during a final 18-h incubation with 1 μCi of [^3H] thymidine per well. The cells were then harvested onto glass fibres using a multiple-cell harvester. Radioactivity incorporated into proliferating cells was determined in a liquid scintillation counter. All tests were carried out in triplicate. The proliferative response was expressed as c.p.m.×10 after subtracting background value incorporation in the absence of antigen.
Moreover, T cells were prepared from the peripheral blood of atopic individuals. Thus, a 50-ml sample of peripheral blood was obtained in heparin. The blood sample was diluted vol/vol in RPMI 1640 and applied to a Ficoll-Hypaque density gradient. […]

CD4+ T cells = experiment: in vitro T cell proliferation assay ([3H]thymidine incorporation) with T cells of immunized Balb/c mice; type: cell-based, mouse; conditions: for proliferation of T cells from immunized mice: Balb/c (H-2d) mice immunized in footpad with 100 μg in complete Freund's adjuvant, lymph node CD4+ T cells restimulated in vitro with myoglobin or Der p II; for immunogenicity: Balb/c mice, subcutaneous immunization
Description: In order to determine experimentally whether this sequence homology could result in functional cross-reactivity between Der p II and myoglobin, mice were immunized by subcutaneous injections of FIS (SEQ ID NO. 2) or myoglobin.
Balb/c mice (H-2^d) were injected once in the footpad with 50 μl of a solution containing 100 μg of peptide or myoglobin emulsified in complete Freund's adjuvant. Ten days later, regional lymph nodes were retrieved, teased and extensively washed with sterile saline to recover cells. The cell suspension was then washed in RPMI buffer (Gibco). Pure CD4^+ T cell suspensions were obtained by negative selection using antibodies towards CD45R, CD11b and CD11c, all conjugated to magnetic beads according to the manufacturer's instructions (Miltenyi Biotech GmbH, Germany).
as §1

Molecule: SEPCIIHRGKP (Dermatophagoides) [SEQ ID NO. 1]
- recognition of T cell epitope in additional mouse H-2 haplotypes (mouse T cells): recognised in the context of three additional mouse H-2 haplotypes
- proportion of human subjects recognising the T cell epitope [1]: more than 85%

Molecule: FISEAIIHVLHSR (Physeter catodon)
- proliferation of T cells from immunized mice (CD4+ T cells): proliferated to myoglobin and to Der p II
- immunogenicity (CD4+ T cells): immunogen

B1: myoglobin: Sheep myoglobin purchased from Sigma Chemicals; red pigment, oxygen reservoir of muscle cells (protein, UniProt P02190 2-154, looked up)
Myoglobin: GLSDGEWQLVLNAWGKVEADVAGHGQEVLIRLFTGHPETLEKFDKFKHLKTEAEMKASEDLKKHGNTVLTALGGILKKKGHHEAEVKHLAESHANKHKIPVKYLEFISDAIIHVLHAKHPSDFGADAQGAMSKALELFRNDMAAQYKVLGFQG
- proliferation of T cells from immunized mice (CD4+ T cells): proliferated to myoglobin and to Der p II
- immunogenicity (CD4+ T cells): immunogen
